Measured values as given in patent US20260216099A1, “BROMOQUINONE AS A TREATMENT FOR OBESITY AND CANCER” (priority 2023, published 2026).
Entries after “also recorded” stand apart in the source; their conditions may differ.

Columns and labels:
[1] = system: ARPE19 cells; experiment: Cell counting assay (Trypan Blue), cell growth; type: cell-based, Human; settings: 48 hours
Method: (§1) Cell Counting Assay: For the cell counting assay, rMc-1, ARPE-19, and HepG2 cells were cultured in DMEM with 4.5 g/L glucose supplemented with 10% fetal bovine serum (FBS), penicillin, and streptomycin. These cells were seeded at 50% confluency before bromoquinone treatment. About 5,000 cells were seeded in a 24-well plate and treated with various amounts of bromoquinone and incubated at 37° C. under 5% CO2. Cell growth was examined by cell counting stained with Trypan Blue. The Raw264.7 and L929 cells were cultured in DMEM supplemented with 10% (vol/vol) heat-inactivated FBS (SH30910.03; Hyclone) at 37° C. and 5% CO2. THP-1 cells were cultured in RPMI-1640 medium supplemented with 10% (v/v) heat-inactivated FBS at 37° C. and 5% CO2.
(§2) When the cell lines (rM-1, ARPE-19 and Hep G2) were cultured for 48 hours in their corresponding media in the presence of various concentrations (0, 0.5, 2.5. 5, and 10 μM) of bromoquinone, the cell survival rate decreased as the concentration of bromoquinone increased. When the concentration of bromoquinone was 10 μM, the cell survival rate decreased by 70-80%, while under the same conditions, no effect on cell growth was observed if normal coenzyme Q or Q0C10 was used.

[2] = system: Hep G2 cells; experiment: Cell counting assay (Trypan Blue), cell growth; type: cell-based, Human; settings: for Effect of Bromoquinone on the Growth (cell survival, % of 0 μM): Hep G2 cells, 48 hours
Method: as §1, §2

[3] = Rat growth study: body weight gain, toxicity, food and water consumption; type: in vivo
Method: 6-Br-Q0C10: Crude 6-Br-Q0C10 was available in the laboratory. It was further purified to homogeneity using thin layer chromatography. The purity of 6-Br-Q0C10 was confirmed by its absorption peak at 303 nm and the concentration was determined spectrophotometrically, using a millimolar extinction coefficient of 20 cm^−1 (13), Carboyxmethyl cellulose was obtained from Amazon. Olive oil and unsalted butter were obtained from the local supermarket. 9 Male F344 (born on Sep. 28, 2023) were purchased from Evigo RMS, Inc, 8520 Allison Pointe Blvd, Suite 4000, Indianapolis, Indiana 46250 on Oct. 17, 2023.
The rats were divided into three groups, three rats in each group. We followed their growth by body weight gained daily until Nov. 5, 2023, and then one group of rats received the 6-Br-Q0C10 treatment, and the second group received only the carrier media used to dissolve the 6-Br-Q0C10, and the third group was used as control without any treatment. All rats had free access to rat chow and water.
Various concentrations of 6-Br-Q0C10 were dissolved in 1% and 1.5% CMC, 40% ethanol, and a mixture of oil and unsalted butter (67:33). 6-Br-Q0C10 solutions and carriers were given to the rats by IG in a volume of 0.3 mL daily. The body weights of the rats were measured and recorded individually and as a group. JACUC Protocol No: SC2101

[4] = system: rM-1, ARPE-19 and Hep G2 cell lines; experiment: Cell counting assay, statements for the three cell lines together; type: cell-based, Rat; Human; settings: for effect on cell growth: same conditions as bromoquinone (up to 10 μM, 48 hours)
Method: as §1, §2

[5] = system: INS-1 cell line; experiment: Cell growth inhibition (FIG. 4); type: cell-based, Rat; settings: INS-1, highest concentration tested
Method: (§3) FIGS. 4A, 4B, and 4C illustrate the effect of bromoquinone on cell growth of HEK293, HeLa, INS-1, and ADSC cells. […] Cells were stained with bisbenzimide.
(§4) Cell Attachment Assay: For the cell attachment assay, Raw264.7 and L929 cells were pre-seeded (100,000 cells/well) in 12-well plates (overnight incubation) at 37° C. and 5% CO2. Bromoquinone was added 24 hours after pre-seeding, and cell attachment was determined by counting attached cells at 72 hours post-treatment. THP-1 cells were pre-seeded (100,000 cells/well) in the presence of 320 nM phorbol-12-myristate-13-acetate (PMA) in 12-well plates (overnight incubation) at 37° C. and 5% CO2. Bromoquinone was added 24 hours after pre-seeding, and cell attachment was determined by counting attached cells at 72 hours post-treatment. Raw264.7, L929, and THP-1 cells were cultured in 12-well plates (100,000 cells/well) in the presence of bromoquinone for 72 hours at 37° C. and 5% CO2. The live cell number was determined by Trypan Blue staining. HEK293 and HeLa cells were cultured in DMEM supplemented with 10% (v/v) fetal bovine serum and 1% (v/v) penicillin-streptomycin. INS-1 cells were cultured in RPMI 1640 media supplemented with 10% (v/v) FBS and 1% (v/v) penicillin-streptomycin. All the cells were incubated at 37° C. and 5% CO2 atmosphere in 10-cm plates. […]

[6] = system: L-929, Raw 264-7 and THP-1 cells; experiment: Cell growth, live cell number by Trypan Blue (FIG. 3A); type: cell-based, Mouse; Human
Method: as §1
Cell Attachment Assay: For the cell attachment assay, Raw264.7 and L929 cells were pre-seeded (100,000 cells/well) in 12-well plates (overnight incubation) at 37° C. and 5% CO2. Bromoquinone was added 24 hours after pre-seeding, and cell attachment was determined by counting attached cells at 72 hours post-treatment. […] Bromoquinone was added 24 hours after pre-seeding, and cell attachment was determined by counting attached cells at 72 hours post-treatment. […] The live cell number was determined by Trypan Blue staining. […]

[7] = system: rMC-1 cells; experiment: Cell counting assay (Trypan Blue), cell growth; type: cell-based, Rat; settings: 48 hours
Method: as §1, §2

[8] = system: ADSC cells; experiment: Cell growth by cell counting, Trypan Blue and hemocytometer (FIG. 4A); type: cell-based, Human
Method: as §3
(§5) Cell Attachment Assay: For the cell attachment assay, Raw264.7 and L929 cells were pre-seeded (100,000 cells/well) in 12-well plates (overnight incubation) at 37° C. and 5% CO2. Bromoquinone was added 24 hours after pre-seeding, and cell attachment was determined by counting attached cells at 72 hours post-treatment. THP-1 cells were pre-seeded (100,000 cells/well) in the presence of 320 nM phorbol-12-myristate-13-acetate (PMA) in 12-well plates (overnight incubation) at 37° C. and 5% CO2. Bromoquinone was added 24 hours after pre-seeding, and cell attachment was determined by counting attached cells at 72 hours post-treatment. Raw264.7, L929, and THP-1 cells were cultured in 12-well plates (100,000 cells/well) in the presence of bromoquinone for 72 hours at 37° C. and 5% CO2. The live cell number was determined by Trypan Blue staining. HEK293 and HeLa cells were cultured in DMEM supplemented with 10% (v/v) fetal bovine serum and 1% (v/v) penicillin-streptomycin. INS-1 cells were cultured in RPMI 1640 media supplemented with 10% (v/v) FBS and 1% (v/v) penicillin-streptomycin. All the cells were incubated at 37° C. and 5% CO2 atmosphere in 10-cm plates. When the cells reached about-80% confluency, they were harvested and cultured on 96-well plates with 5×10^3 cells seeded per well. For each cell line, three 96-well plates were prepared—one for MTT assay and two for bisbenzimide-based nuclear fluorescent stain assay. After 24-hour incubation, the culture medium was replaced by the same medium containing various concentrations (0, 4, 8, 16, 32, and 64 μM) of bromoquinone. Three replicates were made for each condition. The plates then continued to be incubated for another 24 hours (two plates) or 48 hours (one plate). One plate with 24-hour treatment was used for the MTT cell viability assay. The other 24-hour treatment plate and the 48-hour treatment plate were used for the Bisbenzimide-based nuclear fluorescent stain cell imaging.
(§6) As described above, cell lines were cultured in their corresponding media in the presence of various concentrations of bromoquinone (0, 2, 4, 8, 16, 32, and 64 μM) for 48 and 72 hours. […] Similar results were obtained using the MTT assay (FIG. 4B). As expected, when the incubation was prolonged to 72 hours, more inhibition was observed.

[9] = system: HeLa cells; experiment: as above; type: cell-based, Human
Method: as §3, §5, §6

[10] = system: HEK-293 cells; experiment: as above; type: cell-based, Human
Method: as §3, §5, §6

[11] = system: L-929, Raw 264-7 and THP-1 cells; experiment: Cell attachment assay (FIG. 3B); type: cell-based, Mouse; Human; settings: 72 hours post-treatment
Method: as §4, with “plates. When the cells reached about-80% confluency, they were harvested and cultured on 96-well plates with 5×10^3 cells seeded per well.” for “plates.”

[12] = Redox potential; type: physicochemical; settings: difference to Coenzyme Q10
[13] = system: isolated beef liver mitochondria; experiment: Energy coupling (oxidative phosphorylation) in isolated mitochondria treated with bromoquinone; type: biochemical; settings: NADH linked substrate; 2 instead of 3
Method: Introducing an electron-withdrawing group such as bromine should have an effect on the redox potential and UV spectrum, and this is indeed the case. Bromoquinone has a higher redox potential than that of Coenzyme Q10, by about 30 mV and UV spectral shift by 24 nm. A decrease of approximately 30% of energy conservation efficiency has been observed in isolated mitochondria that were treated with bromoquinone. This decrease may be due to the loss of energy conservation site II at Complex III in the bromoquinone-treated mitochondria (2).
When the rats were given 0.3 mL of a high fat mixture daily in addition to normal diet, a significant increase in weight gain was observed. […] Using NADH linked substrate 6-Br-Q0C10 treated mitochondria has a P/O ratio of 2 instead of 3. 6-Br-Q0C10 causes a by-passing of oxidative phosphorylation site 2 because of its high redox-potential.

[14] = system: commercially available cell lines; experiment: Cell growth of commercially available cell lines (halogen-Q0C10); type: cell-based; settings: many commercially available cell lines

Compound: CCCCCCCCCCC1=C(Br)C(=O)C(OC)=C(OC)C1=O [6-Br-Q0C10, 6-Bromo-2,3-dimethoxy-5-decyl-1,4-benzoquinone]
- Effect of Bromoquinone on the Growth (cell survival, % of 0 μM) ([1]; 0.5 μM bromoquinone): 85.4%
- Effect of Bromoquinone on the Growth (cell survival, % of 0 μM) ([1]; 1 μM bromoquinone): 80.9%
- Effect of Bromoquinone on the Growth (cell survival, % of 0 μM) ([1]; 2.5 μM bromoquinone): 60.0%
- Effect of Bromoquinone on the Growth (cell survival, % of 0 μM) ([1]; 5 μM bromoquinone): 41.9%
- Effect of Bromoquinone on the Growth (cell survival, % of 0 μM) ([1]; 10 μM bromoquinone): 26.6%
- Effect of Bromoquinone on the Growth (cell survival, % of 0 μM) ([2]; 0.5 μM bromoquinone): 103.1%
- Effect of Bromoquinone on the Growth (cell survival, % of 0 μM) ([2]; 1 μM bromoquinone): 107.8%
- Effect of Bromoquinone on the Growth (cell survival, % of 0 μM) ([2]; 2.5 μM bromoquinone): 104.2%
- Effect of Bromoquinone on the Growth (cell survival, % of 0 μM) ([2]; 5 μM bromoquinone): 98.1%
- Effect of Bromoquinone on the Growth (cell survival, % of 0 μM) ([2]; 10 μM bromoquinone): 93.3%
- effect on Hep-G2 (cell growth) ([2]; even at 10 μM): very small
- food and water consumption ([3]; 6-Br-Q0C10 treated rats): slight increase
- reduction in body weight gain ([3]; rats, 0.5 mg/IG in 0.3 mL oil/butter (67%/33%) daily, compared to carrier mixture only): 30-40%
- toxicity effect on rats ([3]; rats, even at the highest concentrations used): no toxicity effect
- effect on growth (body weight gain) ([3]; rats, low concentrations, growth period): little effect; also recorded: slight
- toxicity ([3]; rats, lower concentrations): no toxicity
- decrease of cell survival rate ([4]; 10 μM, 48 hours): 70-80%
- inhibition (cell growth) [5]: less than 20%
- inhibition at 50 µM [6]: ≤ 50%
- Effect of Bromoquinone on the Growth (cell survival, % of 0 μM) ([7]; 0.5 μM bromoquinone): 88.2%
- Effect of Bromoquinone on the Growth (cell survival, % of 0 μM) ([7]; 1 μM bromoquinone): 80.1%
- Effect of Bromoquinone on the Growth (cell survival, % of 0 μM) ([7]; 2.5 μM bromoquinone): 68.1%
- Effect of Bromoquinone on the Growth (cell survival, % of 0 μM) ([7]; 5 μM bromoquinone): 36.2%
- Effect of Bromoquinone on the Growth (cell survival, % of 0 μM) ([7]; 10 μM bromoquinone): 27.9%
- inhibition (cell growth, cell counting) ([8]; 48 hours of treatment, FIG. 4A): 82%
- inhibition (cell growth) ([8]; 72 hours): 90%
- inhibition (cell growth, cell counting) ([9]; 48 hours of treatment, FIG. 4A): 66%
- inhibition (cell growth) ([9]; 72 hours): 97%
- inhibition (cell growth, cell counting) ([10]; HEK-293, 48 hours of treatment, FIG. 4A): 69%
- inhibition (cell growth) ([10]; HEK-293, 72 hours): 95%
- inhibition at 50 µM [11]: 70%
- redox potential higher than that of Coenzyme Q10 [12]: about 30 mV
- P/O ratio [13]: 2

Compound: CCCCCCCCCCC1=C(Cl)C(=O)C(OC)=C(OC)C1=O [6-Cl-Q0C10, 6-Chloro-2,3-dimethoxy-5-decyl-1,4-benzoquinone]
- reducing cell growth [14]: effective in reducing cell growth

Compound: CCCCCCCCCCC1=C(C)C(=O)C(OC)=C(OC)C1=O [Q0C10, 2,3-dimethoxy-5-decyl-6-methyl-1,4-benzoquinone]
- effect on cell growth [4]: no effect

Compound: COC1=C(OC)C(=O)C(CC=C(C)CCC=C(C)CCC=C(C)CCC=C(C)CCC=C(C)CCC=C(C)CCC=C(C)CCC=C(C)CCC=C(C)CCC=C(C)C)=C(C)C1=O [coenzyme Q10, 2,3-dimethoxy-5-(isoprenyl)10-6-methyl-1,4-benzoquinone]
- effect on cell growth [4]: no effect
